Among the data in patent publication US12091405B2, “Substituted pyrazole compounds as indoleamine 2,3-dioxygenase inhibitors” (Merck Sharp & Dohme LLC, priority 2018, dated 2024) are IC50 values, retold here.

The target of test [1] is T1, IDO1 (Homo sapiens, UniProt P14902). As to the kind of experiment: IDO1 Cellular Assay in HeLa Cells Stimulated with IFNγ. It is filed as cell-based. Conditions: IFNγ 100 ng/mL, 300 uM L-tryptophan, about 48 hours, fluorescence readout, read-out: IDO1 HELA Cell Assay, IC50.
T1 sequence (P14902 whole entry): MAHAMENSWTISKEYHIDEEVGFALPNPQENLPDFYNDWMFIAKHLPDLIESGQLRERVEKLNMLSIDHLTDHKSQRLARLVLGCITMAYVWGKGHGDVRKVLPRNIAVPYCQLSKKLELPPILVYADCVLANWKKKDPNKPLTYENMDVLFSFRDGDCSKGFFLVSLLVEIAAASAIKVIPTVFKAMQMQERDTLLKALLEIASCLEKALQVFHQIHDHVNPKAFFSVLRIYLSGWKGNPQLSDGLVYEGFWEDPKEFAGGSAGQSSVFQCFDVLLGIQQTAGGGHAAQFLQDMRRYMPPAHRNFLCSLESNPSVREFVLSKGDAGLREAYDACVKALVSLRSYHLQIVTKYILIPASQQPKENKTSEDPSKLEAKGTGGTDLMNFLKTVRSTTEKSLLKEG
In test [2] the target is T1, IDO1. As to the kind of experiment: IDO1 Human Whole Blood Assay. Format: cell-based. Further details: Human whole blood was drawn in sodium heparin coated tubes from healthy internal donors; from tissue; host or cells: human whole blood from healthy donors, stimulated with LPS and IFNγ. Particulars: LPS and IFNγ 100 ng/mL, overnight (18 h), kynurenine by LC/MS/MS. As to the method: IDO1 Human Whole Blood Assay
Compounds to be tested were serially diluted in ten 3-fold steps in DMSO starting from 10 mM. 3 μL of compound dilutions or DMSO alone were then dispensed from the dilution plate into a polypropylene 96-well assay plate containing 97 μL of RPMI medium using an Echo 555 acoustic liquid handler (Labcyte). LPS and IFNγ was prepared in RPMI medium to a 10× of final conc. (1000 ng/mL), final concentration is 100 ng/mL.
Human whole blood was drawn in sodium heparin coated tubes from healthy internal donors. 240 μL of blood was transferred to each of the wells of a v-bottom 96 well plate. 30 μL of compound was transferred from intermediate dilution plate, and incubated for 15 min. 30 μL from stimulants was then transferred to blood and mixed thoroughly. Plate was covered with breathable membrane and incubated at 37° C. for overnight (18 h).
On day 2, isotope labeled standard solutions of kynurenine and tryptophan was made in water at 10× concentration and 30 μL was added to the blood at 3 μM final concentration. The assay plates were centrifuged at 300×G for 10 min with no brake to separate plasma from red blood cells. 60 μL of plasma samples was removed without disturbing red blood cells. Plasma was diluted with RPMI in 1:1 ratio and proteins were precipitated out with two volumes of Acetonitrile. The plates were centrifuged at 4000×G for 60 min. 20 μL of supernatant was carefully transferred to a 384 well plate containing 40 μL of 0.1% formic acid in water and analyzed by LC/MS/MS.
LC/MS/MS analyses were performed using Thermo Fisher's LX4-TSQ Quantum Ultra system. This system consists of four Agilent binary high-performance liquid chromatography (HPLC) pumps and a TSQ Quantum Ultra triple quadrupole MS/MS instrument. For each sample, 5 μL were injected onto an Atlantis T3 column (2.1 mm×150 mm, 3 μm particle size) from Waters. The mobile phase gradient pumped at 0.8 mL/min was used to elute the analytes from the column at 25 EC. The elution started at 0% B increasing linearly to 25% B at 6.5 min, holding at 25% for 1 min, re-equilibrating to 10 min. Mobile phase A consisted of 0.1% formic acid in water. Mobile phase B consisted of 0.1% of formic acid in acetonitrile. Data were acquired in positive mode using a HESI interface. The operational parameters for the TSQ Quantum Ultra instrument were a spray voltage of 4000 V, capillary temperature of 380° C., vaporizer temperature 400° C., shealth gas 60 arbitrary units, Aux gas 20 arbitrary units, tube lens 85 and collision gas 1.2 mTorr. SRM chromatograms of kynurenine (Qi: 209.2>Q3:94.0) and internal standard (Qi: 215.3>Q3:98.2) were collected for 90 sec. The peak area was integrated by Xcalibur Quan software. The ratios between the kynurenine generated in the reaction and 2D6-Kynurenine spiked-in internal standard were used to generate percentage inhibition and IC50 values. Compounds were titrated and IC50's were calculated by 4 parameter sigmoidal curve fitting formula.
The biological activity data of selective compounds using the IDO1 human whole blood assay described above are summarized in the table below.

Usually IC50 stands for the concentration that inhibits the measured activity by half.

As for `Cc1ccccc1C1CCN(C(=O)Cn2nc(C(=O)N3C[C@@H](C)O[C@@H](C)C3)c3c2CCC3)CC1` [Example 62, 2-(3-((2S,6R)-2,6-dimethylmorpholine-4-carbonyl)-5,6-dihydrocyclopenta[c]pyrazol-1(4H)-yl)-1-(4-(o-tolyl)piperidin-1-yl)ethan-1-one], the values for the IC50 at IDO1 [1] and against IDO1 [2] were 9.8 nM and 475 nM, respectively.
Take `Cc1cccc(C2(F)CCN(C(=O)Cn3nc(C(=O)N4C[C@@H](C)O[C@@H](C)C4)c4c3CCC4)CC2)c1C` [Example 7, 2-(3-((2R,6S)-2,6-dimethylmorpholine-4-carbonyl)-5,6-dihydrocyclopenta[c]pyrazol-1(4H)-yl)-1-(4-(2,3-dimethylphenyl)-4-fluoropiperidin-1-yl)ethanone]: the figures for the IC50 at IDO1 [1] and against IDO1 [2] were 3.2 nM and 1210 nM, respectively.
With `Cc1cccc(C2CCN(C(=O)Cn3nc(C(=O)N4C[C@@H](C)O[C@@H](C)C4)c4c3CCC4)CC2)c1C` [Example 64, 2-(3-((2S,6R)-2,6-dimethylmorpholine-4-carbonyl)-5,6-dihydrocyclopenta [c]pyrazol-1(4H)-yl)-1-(4-(2,3-dimethylphenyl)piperidin-1-yl) ethanone], the concentration for half-maximal inhibition (IC50) at IDO1 [1] came to 1.1 nM; against IDO1 [2] it was 296 nM.
For the molecule `Cc1cccc(C2(F)CCN(C(=O)Cn3nc(C(=O)N4CCC(O)CC4)c4c3CCC4)CC2)c1C` [Example 9, 1-(4-(2,3-dimethylphenyl)-4-fluoropiperidin-1-yl)-2-(3-(4-hydroxypiperidine-1-carbonyl)-5,6-dihydrocyclopenta[c]pyrazol-1(4H)-yl)ethanone], the half-maximal inhibitory concentration (IC50) on IDO1 [1] is 11.1 nM; against IDO1 [2] it was 3370 nM.
`Cc1cccc(C2CCN(C(=O)Cn3nc(C(=O)N4C[C@@H](C)O[C@@H](C)C4)c4c3CCC4)CC2)c1` [Example 65, 2-(3-((2S,6R)-2,6-dimethylmorpholine-4-carbonyl)-5,6-dihydrocyclopenta [c]pyrazol-1(4H)-yl)-1-(4-(m-tolyl)piperidin-1-yl)ethanone]: the figures for the 50% inhibitory concentration (IC50) at IDO1 [1] and against IDO1 [2] were 15.8 nM and 652 nM, respectively.
As for `Cc1cccc(C2CCN(C(=O)Cn3nc(C(=O)N4CC[C@@H](O)[C@H](C)C4)c4c3C[C@H]3C[C@@H]43)CC2)c1C` [Example 19, 1-[4-(2,3-dimethylphenyl)piperidin-1-yl]-2-{(3bR,4aR)-3-[(3R,4R)-4-hydroxy-3-methylpiperidine-1-carbonyl]-3b,4,4a,5-tetrahydro-1H-cyclopropa[3,4]cyclopenta[1,2-c]pyrazol-1-yl}ethan-1-one], the half-maximal inhibitory concentration (IC50) at IDO1 [1] is 0.9 nM; against IDO1 [2] it was 219 nM.
Take `Cc1cccc(C2CCN(C(=O)Cn3nc(C(=O)N4CC[C@@H](O)[C@@H](F)C4)c4c3CCCC4)CC2)c1C` [Example 35, 1-(4-(2,3-dimethylphenyl)piperidin-1-yl)-2-(3-((3S,4R)-3-fluoro-4-hydroxypiperidine-1-carbonyl)-4,5,6,7-tetrahydro-1H-indazol-1-yl) ethanone]: the IC50 on IDO1 [1] was 1.3 nM; on IDO1 [2], 221 nM.
For `Cc1c(F)cccc1C1CCN(C(=O)Cn2nc(C(=O)N3C[C@@H](C)O[C@@H](C)C3)c3c2CCC3)CC1` [Example 173, 2-{3-[(2R,6S)-2,6-dimethylmorpholine-4-carbonyl]-5,6-dihydrocyclopenta[c]pyrazol-1(4H)-yl}-1-[4-(3-fluoro-2-methylphenyl)piperidin-1-yl]ethan-1-one] the same measures were 6.4 nM and 269 nM.
For the molecule `Cc1cccc(C2CCN(C(=O)Cn3nc(C(=O)N4CC[C@H](O)[C@H](F)C4)c4c3CCC4)CC2)c1C` (single isomer, unassigned) [Example 61, 1-(4-(2,3-dimethylphenyl)piperidin-1-yl)-2-(3-((3R,4S or 3S, 4R)-3-fluoro-4-hydroxypiperidine-1-carbonyl)-5,6-dihydrocyclopenta[c]pyrazol-1(4H)-yl)ethanone], the IC50 at IDO1 [1] stood at 3.7 nM; on IDO1 [2], 545 nM.
On to `Cc1cccc(C2CCN(C(=O)Cn3nc(C(=O)N4CCC(O)(CF)CC4)c4c3CCCC4)CC2)c1C` [Example 36, 1-(4-(2,3-dimethylphenyl)piperidin-1-yl)-2-(3-(4-(fluoromethyl)-4-hydroxypiperidine-1-carbonyl)-4,5,6,7-tetrahydro-1H-indazol-1-yl) ethanone], for which the half-inhibitory concentration (IC50) on IDO1 [1] stood at 1.6 nM; against IDO1 [2], 50.8 nM.
On to `Cc1c(C2CCN(C(=O)Cn3nc(C(=O)N4C[C@@H](C)O[C@@H](C)C4)c4c3CCC4)CC2)cccc1C(F)(F)F` [Example 83, 2-{3-[(2R,6S)-2,6-dimethylmorpholine-4-carbonyl]-5,6-dihydrocyclopenta[c]pyrazol-1(4H)-yl}-1-{4-[2-methyl-3-(trifluoromethyl)phenyl]piperidin-1-yl}ethan-1-one], for which the IC50 on IDO1 [1] is 4.2 nM; on IDO1 [2] it was 1850 nM.
For `Cc1cccc(C2CCN(C(=O)Cn3nc(C(=O)N4CCO[C@H](CO)C4)c4c3CCC4)CC2)c1C` [Example 43, (S)-1-(4-(2,3-dimethylphenyl)piperidin-1-yl)-2-(3-(2-(hydroxymethyl)morpholine-4-carbonyl)-5,6-dihydrocyclopenta[c]pyrazol-1(4H)-yl) ethanone] the same measures were 5.5 nM and 192 nM.
For `Cc1cccc(C2CCN(C(=O)Cn3nc(C(=O)N4CC[C@@H](O)[C@@H](F)C4)c4c3CCC4)CC2)c1C` [Example 60, 1-(4-(2,3-dimethylphenyl)piperidin-1-yl)-2-(3-((3S,4R)-3-fluoro-4-hydroxypiperidine-1-carbonyl)-5,6-dihydrocyclopenta[c]pyrazol-1(4H)-yl)ethanone], the IC50 at IDO1 [1] worked out at 3.5 nM; against IDO1 [2] it was 488 nM.
Taken in the same sequence, the figures for `Cc1cc(C2CCN(C(=O)Cn3nc(C(=O)N4C[C@@H](C)O[C@@H](C)C4)c4c3CCC4)CC2)ccc1Cl` [Example 81, 1-[4-(4-chloro-3-methylphenyl)piperidin-1-yl]-2-{3-[(2R,6S)-2,6-dimethylmorpholine-4-carbonyl]-5,6-dihydrocyclopenta[c]pyrazol-1(4H)-yl}ethan-1-one] were 2.9 nM and 1320 nM.
For the molecule `Cc1c(Cl)cccc1C1CCN(C(=O)Cn2nc(C(=O)N3C[C@@H](C)O[C@@H](C)C3)c3c2CCC3)CC1` [Example 82, 1-[4-(3-chloro-2-methylphenyl)piperidin-1-yl]-2-{3-[(2R,6S)-2,6-dimethylmorpholine-4-carbonyl]-5,6-dihydrocyclopenta[c]pyrazol-1(4H)-yl}ethan-1-one], the figures for the 50% inhibitory concentration (IC50) on IDO1 [1] and at IDO1 [2] were 3.5 nM and 435 nM, respectively.
On to `Cc1cccc(C2CCN(C(=O)Cn3nc(C(=O)N4CC[C@H](O)[C@@H](F)C4)c4c3CCCC4)CC2)c1C` [Example 32, 1-(4-(2,3-dimethylphenyl)piperidin-1-yl)-2-(3-((3S,4S)-3-fluoro-4-hydroxypiperidine-1-carbonyl)-4,5,6,7-tetrahydro-1H-indazol-1-yl) ethanone], for which the IC50 came to 0.8 nM on IDO1 [1] and 83.7 nM against IDO1 [2].
`Cc1cccc(C2CCN(C(=O)Cn3nc(C(=O)N4CCC(O)CC4)c4c3CCC4)CC2(F)F)c1C` (single isomer, unassigned) [Example 14, 1-(4-(2,3-dimethylphenyl)-3,3-difluoropiperidin-1-yl)-2-(3-(4-hydroxypiperidine-1-carbonyl)-5,6-dihydrocyclopenta[c]pyrazol-1(4H)-yl)ethanone]: the half-maximal inhibitory concentration (IC50) was found to be 3.4 nM on IDO1 [1] and 1390 nM against IDO1 [2].
